Data as given in patent publication US11912686B2 (Gilead Sciences, Inc., priority 2020, dated 2024).

Biological target: human LPAR1 (Homo sapiens (Human), UniProt Q92633)
Assay: LPAR1 intracellular calcium mobilization assay (antagonist mode, FLIPR)
Format: cell-based
Settings: CHO-K1 EDG2 cells expressing human LPAR1, LPA 18:2 at EC80 (100 nM), test compound 0.5 nM to 10 μM

human LPAR1, sequence (Q92633 whole entry): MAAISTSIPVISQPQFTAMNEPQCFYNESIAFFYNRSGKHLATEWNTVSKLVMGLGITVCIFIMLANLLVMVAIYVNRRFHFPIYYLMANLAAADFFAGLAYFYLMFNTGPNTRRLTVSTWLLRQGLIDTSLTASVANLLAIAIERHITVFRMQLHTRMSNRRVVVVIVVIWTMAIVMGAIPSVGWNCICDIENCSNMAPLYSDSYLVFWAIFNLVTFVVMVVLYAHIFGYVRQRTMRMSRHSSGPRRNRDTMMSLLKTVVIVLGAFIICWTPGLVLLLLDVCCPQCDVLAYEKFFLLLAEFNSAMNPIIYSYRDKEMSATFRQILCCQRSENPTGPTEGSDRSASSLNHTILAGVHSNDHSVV

Q: Which EC50 does the source give for `CO[C@]1(C#N)C[C@H](C(=O)Nc2ccc(-c3nnn(C)c3NC(=O)O[C@H](C)c3cccnc3Cl)nc2)C1` [Compound 138, (R)-1-(2-chloropyridin-3-yl)ethyl (4-(5-((1s,3S)-3-cyano-3-methoxycyclobutane-1-carboxamido)pyridin-2-yl)-1-methyl-1H-1,2,3-triazol-5-yl)carbamate] here?
A: Its EC50 is 84.9 nM.

Q: For `C[C@@H](OC(=O)Nc1c(-c2ccc(NC(=O)[C@H]3C[C@](O)(C#N)C3)cn2)nnn1C)c1cccnc1Cl` [Compound 140, (R)-1-(2-chloropyridin-3-yl)ethyl (4-(5-((1s,3S)-3-cyano-3-hydroxycyclobutane-1-carboxamido)pyridin-2-yl)-1-methyl-1H-1,2,3-triazol-5-yl)carbamate], which EC50 is on record?
A: The EC50 was 349 nM.

Q: How did the EC50 turn out when `C[C@@H](OC(=O)Nc1c(-c2ccc(NC(=O)C3(C#N)CC(=O)C3)cn2)nnn1C)c1cccnc1Cl` [Compound 141, (R)-1-(2-chloropyridin-3-yl)ethyl (4-(5-(1-cyano-3-oxocyclobutane-1-carboxamido)pyridin-2-yl)-1-methyl-1H-1,2,3-triazol-5-yl)carbamate] was run?
A: The EC50 was 459 nM.

Q: How did the EC50 turn out when `C[C@@H](OC(=O)Nc1c(-c2ccc(NC(=O)C3CCC3C#N)cn2)nnn1C)c1cccnc1Cl` (stereo partly drawn) [Compound 142, (R)-1-(2-chloropyridin-3-yl)ethyl (4-(5-(2-cyanocyclobutane-1-carboxamido)pyridin-2-yl)-1-methyl-1H-1,2,3-triazol-5-yl)carbamate] was run?
A: Its EC50 is 217 nM.

Q: With `CC(C#N)C(=O)Nc1ccc(-c2nnn(C)c2NC(=O)O[C@H](C)c2cccnc2Cl)nc1` (stereo partly drawn) [Compound 143, (R)-1-(2-chloropyridin-3-yl)ethyl (4-(5-(2-cyanopropanamido)pyridin-2-yl)-1-methyl-1H-1,2,3-triazol-5-yl)carbamate] as the molecule, how does the EC50 read?
A: Its EC50 is 189 nM.

Q: For `C[C@@H](OC(=O)Nc1c(-c2ccc(NC(=O)C3(C)CC(F)(F)C3)cn2)nnn1C)c1cccnc1Cl` [Compound 144, (R)-1-(2-chloropyridin-3-yl)ethyl (4-(5-(3,3-difluoro-1-methylcyclobutane-1-carboxamido)pyridin-2-yl)-1-methyl-1H-1,2,3-triazol-5-yl)carbamate], which EC50 is on record?
A: Its EC50 is 36.1 nM.

Q: `C[C@@H](OC(=O)Nc1c(-c2ccc(NC(=O)C3(C#N)C(C#N)C3(C)C)cn2)nnn1C)c1cccnc1Cl` (stereo partly drawn) [Compound 145, (R)-1-(2-chloropyridin-3-yl)ethyl (4-(5-(1,3-dicyano-2,2-dimethylcyclopropane-1-carboxamido)pyridin-2-yl)-1-methyl-1H-1,2,3-triazol-5-yl)carbamate] was tested. Which EC50 did it give?
A: The EC50 was 184 nM.

Q: For `C[C@@H](OC(=O)Nc1c(-c2ccc(NC(=O)C3(C#N)CC3(C)C)cn2)nnn1C)c1cccnc1Cl` (stereo partly drawn) [Compound 146, (R)-1-(2-chloropyridin-3-yl)ethyl (4-(5-(1-cyano-2,2-dimethylcyclopropane-1-carboxamido)pyridin-2-yl)-1-methyl-1H-1,2,3-triazol-5-yl)carbamate], which EC50 is on record?
A: Its EC50 is 271 nM.

Q: With `C[C@@H](OC(=O)Nc1c(-c2ccc(NC(=O)C3(C#N)CC3C(F)(F)F)cn2)nnn1C)c1cccnc1Cl` (stereo partly drawn) [Compound 147, (R)-1-(2-chloropyridin-3-yl)ethyl (4-(5-(1-cyano-2-(trifluoromethyl)cyclopropane-1-carboxamido)pyridin-2-yl)-1-methyl-1H-1,2,3-triazol-5-yl)carbamate] as the molecule, how does the EC50 read?
A: Its EC50 is 33.9 nM.

Q: `CC1CC1(C#N)C(=O)Nc1ccc(-c2nnn(C)c2NC(=O)O[C@H](C)c2cccnc2Cl)nc1` (stereo partly drawn) [Compound 148, (R)-1-(2-chloropyridin-3-yl)ethyl (4-(5-(1-cyano-2-methylcyclopropane-1-carboxamido)pyridin-2-yl)-1-methyl-1H-1,2,3-triazol-5-yl)carbamate] was tested. Which EC50 did it give?
A: Its EC50 is 30.4 nM.

Q: Which EC50 does the source give for `C[C@@H](OC(=O)Nc1c(-c2ccc(NC(=O)C3CC34CC4)cn2)nnn1C)c1cccnc1Cl` (stereo partly drawn) [Compound 149, (R)-1-(2-chloropyridin-3-yl)ethyl (1-methyl-4-(5-(spiro[2.2]pentane-1-carboxamido)pyridin-2-yl)-1H-1,2,3-triazol-5-yl)carbamate] here?
A: Its EC50 is 329 nM.
